This note sets out measurements from USRE43802E1, “α- and β-amino acid hydroxyethylamino sulfonamides useful as retroviral protease inhibitors” (G.D. Searle LLC, priority 1992, dated 2012).

The target of the test is T1, HIV protease (Human immunodeficiency virus type 1 group M subtype B, UniProt P04585).
T1 construct: HIV protease is diluted in the assay buffer to a final enzyme concentration of 12.3 nanomolar, based on a molecular weight of 10,780
In words: HIV protease enzyme assay (fluorescence, substrate 2-Ile-Nle-Phe(p-NO2)-Gln-ArgNH2). It counts as biochemical. The conditions noted are these: for IC50: HIV protease enzyme assay. The protocol:
The enzyme method is described below. […] The positive control is MVT-101 (Miller, M. et al, Science, 246, 1149 (1989)] The assay conditions are as follows:
Assay buffer: 20 mM sodium phosphate, pH 6.4 20% glycerol 1 mM EDTA 1 mM DTT 0.1% CHAPS
The above described substrate is dissolved in DMSO, then diluted 10 fold in assay buffer. Final substrate concentration in the assay is 80 μM.
The final concentration of DMSO is 14% and the final concentration of glycerol is 18%. The test compound is dissolved in DMSO and diluted in DMSO to 10× the test concentration; 10 μl of the enzyme preparation is added, the materials mixed and then the mixture is incubated at ambient temperature for 15 minutes. The enzyme reaction is initiated by the addition of 40 μl of substrate. The increase in fluorescence is monitored at 4 time points (0, 8, 16 and 24 minutes) at ambient temperature. Each assay is carried out in duplicate wells.

The mark [1] stands for this setting: Table 19B, read-out: IC50 (uM) or % inhib: IC50.
Setting [2] is: Table 20, read-out: IC50 (uM) or % inhibition: IC50.

Like-named read-outs stand apart in the source and are kept apart here.

`COc1ccc(S(=O)(=O)N(CC(C)C)C[C@@H](O)[C@H](Cc2ccccc2)NC(=O)COc2ccccc2C)cc1` [Example 75]: the IC50 (Table 21, read-out: IC50) worked out at 0.008 µM.
On to `CCCS(=O)(=O)N(CCC(C)C)C[C@@H](O)[C@H](Cc1ccccc1)NC(=O)OCc1ccccc1` [Table 1a Entry 40], for which the IC50 under setting [1] came to 0.21 µM.
Take `CC(C)CN(C[C@@H](O)[C@H](Cc1ccccc1)NC(=O)OCc1cccnc1)S(=O)(=O)c1ccc2c(c1)CCO2` [Example 66]: under “Table 21, read-out: IC50”, the IC50 amounted to 0.004 µM.
Regarding `CC(C)CCN(C[C@@H](O)[C@H](Cc1ccccc1)NC(=O)[C@H](Cc1c[nH]cn1)NC(=O)OCc1ccccc1)S(=O)(=O)c1ccccc1` [Entry 8], the IC50 (Table 18A, read-out: IC50) was found to be 0.0042 µM.
In the case of `CC(C)CN(C[C@@H](O)[C@H](Cc1ccccc1)NC(=O)OCc1ccccc1)S(C)(=O)=O` [Table 1a Entry 51], for the setting “Table 19B”, the “IC50 (uM) or % inhib: % inhib @ 1 uM” value is on record as 31% and the “IC50 (uM) or % inhib: % inhib @ 10 uM” value came to 76%.
On to `O=C(N[C@@H](Cc1ccccc1)[C@H](O)CN(C1CCCCC1)S(=O)(=O)c1ccccc1)OCc1ccccc1` [Entry 5], for which the IC50 runs as follows: (Table 18A, read-out: IC50) 0.019 µM; (Table 21, read-out: IC50) 0.019 µM.
On to `COc1ccc(S(=O)(=O)N(CC(C)C)C[C@@H](O)[C@H](Cc2ccccc2)NC(=O)c2cccc([N+](=O)[O-])c2C)cc1` [Example 48], for which the IC50 (Table 21, read-out: IC50) turned out to be 0.017 µM.
On the same count and under the same terms, then `COc1ccc(S(=O)(=O)N(CC(C)C)C[C@@H](O)[C@H](Cc2ccccc2)NC(=O)c2ccc3nc(N)sc3c2)cc1` [Example 76], with 0.005 µM; and `CC(C)CN(C[C@@H](O)[C@H](Cc1ccccc1)NC(=O)O[C@H]1CCSC1)S(=O)(=O)c1ccc(O)cc1` [Example 42], with 0.002 µM; and `COc1ccc(S(=O)(=O)N(CC(C)C)C[C@@H](O)[C@H](Cc2ccccc2)NC(=O)c2ccc([N+](=O)[O-])cc2C)cc1` [Example 50], with 0.014 µM.
Consider `CC(C)CCN(CC(O)C(Cc1ccccc1)NC(=O)C(N)C(C)(C)C)S(=O)(=O)c1ccccc1` (stereo not drawn) [Table 11 Entry 1], for which the IC50 under setting [1] came out at 0.13 µM.
With `COc1ccc(S(=O)(=O)N(CC(C)C)C[C@@H](O)[C@H](Cc2ccccc2)NC(=O)OCc2ccc(N)nc2)cc1` [Example 38], the half-maximal inhibitory concentration (IC50) (Table 21, read-out: IC50) worked out at 0.004 µM.
`CC(C)CCN(C[C@@H](O)[C@H](Cc1ccccc1)NC(=O)[C@@H](NC(=O)OCc1ccccc1)C(C)(C)C)S(C)(=O)=O` [Entry 11]: for the setting “Table 18A, read-out: IC50”, the IC50 amounted to 0.081 µM.
With `Cc1c(N)cccc1C(=O)N[C@@H](Cc1ccccc1)[C@H](O)CN(CC(C)C)S(=O)(=O)c1ccc2c(c1)OCO2` [Example 71], the IC50 (Table 21, read-out: IC50) was 0.005 µM.
Regarding `COc1ccc(S(=O)(=O)N(CC(C)C)C[C@@H](O)[C@H](Cc2ccccc2)NC(=O)OCc2cc[n+]([O-])cc2)cc1` [Example 26], where the note is “Table 21, read-out: IC50”, the IC50 worked out at 0.068 µM.
Turning to `COc1ccc(S(=O)(=O)N(CC(C)C)CC(O)C(Cc2ccccc2)NC(=O)c2cccc(S(C)(=O)=O)c2)cc1` (stereo not drawn) [Table 5A Entry 18], under setting [2], the concentration for half-maximal inhibition (IC50) is 0.13 µM.
Compound `CC(C)CCN(C[C@@H](O)[C@H](Cc1ccccc1)NC(=O)[C@@H](NC(=O)CN(C)C)C(C)(C)C)S(C)(=O)=O` [Entry 6] came in with an IC50 (IC50 (nM), Table 21) above 0.1 µM.
Regarding `CC(C)CN(C[C@@H](O)[C@H](Cc1ccccc1)NC(=O)OCc1cncnc1)S(=O)(=O)c1ccc(O)cc1` [Example 41], the IC50 (Table 21, read-out: IC50) came to 0.003 µM.
With `CC(C)CCN(C[C@@H](O)[C@H](Cc1ccccc1)NC(=O)[C@@H](NC(=O)CN(C)C)C(C)(C)C)S(=O)(=O)c1ccccc1` [Entry 11], under “IC50 (nM), Table 21”, the IC50 amounted to 0.003 µM.
Take `COc1ccc(S(=O)(=O)N(CC(C)C)CC(O)C(Cc2ccccc2)NC(=O)C2CCCC2)cc1` (stereo not drawn) [Table 5A Entry 1]: under setting [2], the IC50 is 0.04 µM.
As to `COc1ccc(S(=O)(=O)N(CC(C)C)C[C@@H](O)[C@H](Cc2ccccc2)NC(=O)C2CCCCC2)cc1` [Example 35], the IC50 (Table 21, read-out: IC50) came out at 0.018 µM.
As to `CC(C)CCN(C[C@@H](O)[C@H](Cc1ccccc1)NC(=O)OCc1ccccc1)S(C)(=O)=O` [Table 1a Entry 41], under “Table 19B”, the “IC50 (uM) or % inhib: % inhib @ 1 uM” value is recorded as 24% and the “IC50 (uM) or % inhib: % inhib @ 10 uM” value turned out to be 74%.
Turning to `COc1ccc(S(=O)(=O)N(CC(C)C)CC(O)C(Cc2ccccc2)NC(=O)c2ccc(CS(C)(=O)=O)cc2)cc1` (stereo not drawn) [Table 5A Entry 22], the “IC50 (uM) or % inhibition: % inhibition @ 1 μM” value (Table 20, @ 1 μM) is recorded as 63% @ 1 μM.
As to `CC(C)CN(C[C@@H](O)[C@H](Cc1ccccc1)NC(=O)OCc1cncs1)S(=O)(=O)c1ccc2c(c1)OCO2` [Example 70], under “Table 21, read-out: IC50”, the IC50 was found to be 0.005 µM.
As for `CC(C)CCN(C[C@@H](O)[C@H](Cc1ccccc1)NC(=O)OCc1ccccc1)S(=O)(=O)c1cccs1` [Entry 10], the IC50 (Table 18A, read-out: IC50) amounted to 0.1 µM.
`CC(C)CN(C[C@@H](O)[C@H](Cc1ccccc1)NC(=O)OCc1cccnc1)S(=O)(=O)c1ccc(O)cc1` [Example 20]: where the note is “Table 21, read-out: IC50”, the concentration for half-maximal inhibition (IC50) was determined as 0.004 µM.
Same read-out and setting: then `CSCCCN(C[C@@H](O)[C@H](Cc1ccccc1)NC(=O)OCc1ccccc1)S(=O)(=O)c1ccccc1` [Entry 10], with 0.045 µM; and `COc1ccc(S(=O)(=O)N(CC(C)C)C[C@@H](O)[C@H](Cc2ccccc2)NC(=O)OCc2cncnc2)cc1` [Example 23], with 0.002 µM; and `COc1ccc(S(=O)(=O)N(CC(C)C)C[C@@H](O)[C@H](Cc2ccccc2)NC(=O)O[C@H]2CCSC2)cc1` [Example 46], with 0.002 µM.
`Cc1ccccc1C(=O)N[C@@H](Cc1ccccc1)[C@H](O)CN(CC(C)C)S(=O)(=O)c1ccc(O)cc1` [Example 37]: for the setting “Table 21, read-out: IC50”, the IC50 was found to be 0.007 µM.
The same measure, in the same setting: next, `Cc1c(N)cccc1C(=O)N[C@@H](Cc1ccccc1)[C@H](O)CN(CC(C)C)S(=O)(=O)c1ccc2c(c1)CCO2` [Example 68]: 0.007 µM.
Consider `CCC(C)C(NC(=O)OCc1ccccc1)C(=O)N[C@@H](Cc1ccccc1)[C@H](O)CN(CCC(C)C)S(=O)(=O)c1ccccc1` (stereo partly drawn) [Table 3 Entry 4], for which the IC50 under setting [1] worked out at 0.0024 µM.
Turning to `CC(C)CCN(C[C@@H](O)[C@H](Cc1ccccc1)NC(=O)[C@@H](NC(=O)OCc1ccccc1)C(C)(C)C)S(=O)(=O)c1ccccc1` [Table 5 Entry 22], the IC50 under setting [1] turned out to be 0.0018 µM.
Turning to `CC(C)CN(C[C@@H](O)[C@H](Cc1ccccc1)NC(=O)O[C@H]1CCOC1)S(=O)(=O)c1ccc(O)cc1` [Example 45], the half-inhibitory concentration (IC50) (Table 21, read-out: IC50) worked out at 0.002 µM.
On the same count and under the same terms, then `CCC(C)[C@H](NC(=O)CN(C)C)C(=O)N[C@@H](Cc1ccccc1)[C@H](O)CN(CC(C)C)S(=O)(=O)c1ccc(OC)cc1` (stereo partly drawn) [Example 13], with 0.003 µM; and `COCCCN(C[C@@H](O)[C@H](Cc1ccccc1)NC(=O)OCc1ccccc1)S(=O)(=O)c1ccccc1` [Entry 9], with 0.053 µM.
For the compound `CC(C)CN(CC(O)C(Cc1ccccc1)NC(=O)c1ccccc1)S(=O)(=O)c1ccccc1` (stereo not drawn) [Table 5A Entry 24], under setting [2], the IC50 was 0.047 µM.
Turning to `CCC(C)CN(C[C@@H](O)[C@H](Cc1ccccc1)NC(=O)OCc1ccccc1)S(=O)(=O)c1ccc(OC)cc1` (stereo partly drawn) [Table 1a Entry 56], under setting [1], the IC50 stood at 0.0036 µM.
Take `CC(C)CN(C[C@@H](O)[C@H](Cc1ccccc1)NC(=O)OCc1ccoc1)S(=O)(=O)c1ccc(N)cc1` [Example 60]: the IC50 (Table 21, read-out: IC50) was found to be 0.005 µM.
Take `COc1ccc(S(=O)(=O)N(CC(C)C)C[C@@H](O)[C@H](Cc2ccccc2)NC(=O)COc2c(C)cccc2C)cc1` [Example 74]: the IC50 (Table 21, read-out: IC50) is 0.003 µM.
Still for that read-out and setting: then `COc1ccc(S(=O)(=O)N(CC(C)C)C[C@@H](O)[C@H](Cc2ccccc2)NC(=O)c2cc([N+](=O)[O-])ccc2C)cc1` [Example 53], with 0.021 µM.
Compound `CCC(C)[C@H](NC(=O)CN(C)C)C(=O)N[C@@H](Cc1ccccc1)[C@H](O)CN(CCC(C)C)S(=O)(=O)c1ccccc1` (stereo partly drawn) [Entry 14] had an IC50 (IC50 (nM), Table 21) of 0.004 µM.
